Laboratory results as given in patent publication US7314620B2, “Methods for diagnosis and treatment of PH domain signal transduction disorders” (New York University, priority 1995, dated 2008).
pKd: −log10 of the molar value. “And” between values parts separate entries of the source, which are not always exact repeats. Equal entries are not always repeated. Where two headings read alike, the source gives them in different places.

Experiments:
[1] = system: any PH domain (PLCδ-PH, Dyn-PH, PlecN-PH); experiment: Centrifugation-based assay of PH domain binding to lipid vesicles; conditions: lipid at 5% in DMPC vesicles
Protocol: Attempts to detect PH domain association with lipid vesicles were performed exactly as described by Harlan, J. E. et al., Nature 371, 168-170, 1994. In addition to using the BCA protein assay reagent, for which lipid blanks were rather high compared with the values expected for the protein concentrations employed, we also measured OD278 of the supernatants after addition of SDS in order to detect removal of protein upon pelleting vesicles. […] Initially, we performed a centrifugation-based assay, using the conditions described by Harlan, J. E. et al., Nature 371, 168-170, 1994. […] Similarly, we were unable to detect association of any of the PH domains with the same vesicles by using size-exclusion chromatography to separate protein and lipid. Any complexes between the PH domains and these vesicles therefore form with low affinity and/or have fast dissociation kinetics, such that they dissociate in the separation methods employed.

[2] = target: T1, PLCδ-PH (PH domain of rat PLC-δ1) (Rattus norvegicus, UniProt P10688); experiment: Isothermal titration calorimetry of inositol polyphosphate / PIP2 vesicle binding to PLCδ-PH; conditions: for pKd: read-out: KD
T1 construct: initiator methionine (N); made in house; host or cells: Escherichia coli (pET11a, T7 system)
T1 sequence (P10688 20-136): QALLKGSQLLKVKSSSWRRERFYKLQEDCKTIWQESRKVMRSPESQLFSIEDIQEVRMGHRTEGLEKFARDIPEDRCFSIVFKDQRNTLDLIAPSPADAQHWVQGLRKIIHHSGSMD
Protocol: The resulting titration curve was fit using Omega software (Wiseman et al., 1989).
All experiments utilized the OMEGA instrument from MicroCal (Wiseman, T. et al., Anal. Biochem. 179, 131-137, 1989), in the laboratory of Prof. Julian Sturtevant at Yale. Titrations were performed at 25° C. in 50 mM MOPS, 100 mM NaCl, pH 6.8 or 100 mM NH4OAc at pH 6.8. […] For each titration, PH domain solution was dialyzed exhaustively against the buffer used for dilution of highly concentrated stocks of ligand. Heats for dilution of the ligand solutions were determined in separate titrations of ligand into buffer solution present in the cell.
Higher concentrations were employed for weaker binding events. […] Stoichiometry, binding constant (Kβ) and ΔH were all allowed to float in the fitting procedure.
A titration curve such as that to an equation describing a simple-binding reaction (Wiseman, T. et al., Anal. Biochem. 179, 131-137, 1989). From this fit, values for the binding constant, stoichiometry and ΔH for the binding reaction are ascertained. […] Ferris, C. D. et al, Nature, 342, 87-89, 1989.

PlecN-PH = target: T2, PlecN-PH (Homo sapiens, UniProt P08567); experiment: Equilibrium gel filtration (Hummel and Dreyer) of PH domain binding to lipid vesicles; conditions: PIP2-containing vesicles; overestimate; inhibited by moderately high NaCl; read-out: apparent KD for vesicle binding
T2 construct: residues 1-110 of pleckstrin (PlecN-PH); initiator methionine (N); made in house; host or cells: Escherichia coli (pET11a, T7 system)
T2 sequence (P08567 1-110): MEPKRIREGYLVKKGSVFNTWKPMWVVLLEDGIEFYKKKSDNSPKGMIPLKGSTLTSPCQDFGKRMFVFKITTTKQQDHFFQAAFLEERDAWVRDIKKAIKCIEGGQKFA
Protocol: A 150×7.5 mm Superdex 75 column, attached to a Dionex HPLC system, was equilibrated with buffer containing PH domain at around 5 μM (depending upon the experiment). A suspension of vesicles that also contained 5 μM PH domain was then injected. In the absence of interaction between the PH domain and the vesicles, the resulting column profile (detected by absorbance at 280 nm) reflects only the lipid peak. However, if there is significant interaction, a trough is observed at a position corresponding to the elution position of the free PH domain, since the lipids have removed free PH domain from the column buffer. When such a trough was observed, in order to determine a KD for the interaction, a series of higher concentrations of PH domain were injected, all with constant lipid concentration. A plot of trough area against [PH] in the injected sample was linear, becoming positive when excess free protein was present in the injected sample (see FIG. 5B). This line was used to determine the point at which no trough was observed. At this point, [PH]free in the injected sample is equal to [PH] in the column buffer. Since [PH]total as well as [lipid]total in the injected sample are known, KD can be determined, as KD=([PH]free×[lipid]free)/[complex]. [complex]=[PH]total−[PH]free, and [lipid]free=[lipid]total−[complex].
We also utilized the equilibrium gel-filtration approach described by Hummel, J. P., and Dreyer, W. J., Biochim. Biophys. Acta. 63, 530-532, 1962. In this approach, a size exclusion column is equilibrated with a solution of the ligand (5 μM PH domain in this case), and a solution of macromolecule (a vesicle suspension in this case) that also contains 5 μM ligand is then injected. In the absence of interaction between the ligand and macromolecule, a single peak, corresponding to the macromolecule, is observed. […] If an interaction is observed, its KD can be determined as described in Experimental Procedures. […]

[3] = ITC, PIP2 at 5% in DMPC vesicles

Phosphatidylinositol-(4,5)-bisphosphate [PIP2]
binding to vesicles [1]: no binding
PIP2 in the vesicle preparation available for PLCδ-PH binding (apparent stoichiometry) [2, 3]: 57%
pKd [2, 3]: 6.00 and 6.02
binding affinity in words ([2]; PIP2 in vesicles): submicromolar affinities
ΔG ([2]; individual titrations, 25° C): -8.22 kcal/M and -7.74 kcal/M
ΔH ([2]; individual titrations, 25° C): -13.6 ± 0.4 kcal/M and -17.4 ± 0.4 kcal/M
ΔS ([2]; individual titrations, 25° C): −18.1 cal · M^−1 · K^−1 and −32.4 cal · M^−1 · K^−1
Stoichiometry n ([2]; individual titrations, 25° C, pH 6.8, quoted for IPn as the ligand, PIP2 in vesicles assuming 50% available): 0.88 ± 0.02 and 0.87 ± 0.02
pKd ([2]; individual titrations, 25° C, pH 6.8): 6.02 and 5.67
pKd (PlecN-PH): ~4.05
